Data taken from ChEMBL document CHEMBL1144089, “New geodiamolides from the sponge Cymbastela sp. collected in Papua New Guinea” (J Nat Prod, 1999).
Values after ≈ are worked out from the molar mass of the structure shown.

Legend:
[1] = test system: HEY; assay: Cytotoxicity against human HEY cells; format: functional, cell-based
[2] = Cytotoxicity against human U373 cells; format: functional, cell-based, U-373MG ATCC; settings: U373 MG

| SMILES | IC50 [1] [µg/mL] | IC50 [2] [µg/mL] | IC50 ([1]; read-out: IC50) [µg/mL] | IC50 ([2]; read-out: IC50) [µg/mL] |
| --- | --- | --- | --- | --- |
| C=C1C[C@H](C)C(=O)N[C@@H](C)C(=O)N(C)[C@H](Cc2ccc(O)c(I)c2)C(=O)N[C@@H](C)C(=O)O[C@@H](C)C[C@@H](C)C1=O [GEODIAMOLIDE G] | 8.6 (≈ 13.1 µM) | 7.7 (≈ 11.7 µM) |  |  |
| C/C1=C\[C@H](C)C[C@H](C)OC(=O)[C@H](C)NC(=O)[C@@H](Cc2ccc(O)c(I)c2)N(C)C(=O)[C@H](C)NC(=O)[C@@H](C)C1 [GEODIAMOLIDE A] |  |  | 43 (≈ 67 µM) | 16 (≈ 24.9 µM) |
